Where “and” joins values, the source holds several entries; their conditions need not be identical. Equal entries are not always repeated.

The target in assay [1] is T1, Angiotensin receptor 1 (AT1) (Homo sapiens, UniProt P30556).
T1 construct: host or cells: Angiotensin receptor 1 (AT1) Cell Line (PathHunter)
T1 sequence (P30556 1-359): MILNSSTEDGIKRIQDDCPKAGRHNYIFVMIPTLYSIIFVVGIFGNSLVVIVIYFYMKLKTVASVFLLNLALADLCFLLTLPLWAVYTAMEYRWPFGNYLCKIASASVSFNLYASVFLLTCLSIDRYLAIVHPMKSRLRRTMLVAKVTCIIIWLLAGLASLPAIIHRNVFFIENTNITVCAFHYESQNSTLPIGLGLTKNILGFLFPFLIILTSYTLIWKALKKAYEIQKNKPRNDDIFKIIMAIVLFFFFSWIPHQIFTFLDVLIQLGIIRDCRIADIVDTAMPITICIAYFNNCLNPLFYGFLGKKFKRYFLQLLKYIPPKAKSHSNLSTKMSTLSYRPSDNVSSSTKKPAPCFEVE
Put plainly: AT1 DiscoveRx PathHunter β-arrestin counterscreen (antagonism of angiotensin II). The conditions noted are these: β-arrestin assay, n = 4 unless noted in parentheses; read-out: AT1 Potency IC50 (μM) Ave. ± S.E.M. Type of assay: cell-based. The text has this: (§1) All assays in Table 2, with the exception of the […] counterscreen, utilize the DiscoveRx PathHunter® β-arrestin assay technology. Unlike imaging or other second messenger assays, the DiscoveRx β-arrestin assay allows for a direct measure of GPCR activation by detection of β-arrestin binding to the APJ, and in the case of the counterscreen, the AT1 receptor. […] In cells that stably express these fusion proteins, ligand stimulation results in the interaction of β-arrestin and the ProLink-tagged GPCR, forcing the complementation of the two β-galactosidase fragments and resulting in the formation of a functional enzyme that converts substrate to detectable luminescent signal.
Next, varying volumes of stock test compounds in DMSO were transferred to each well to achieve appropriate dose response concentrations and range. DMSO was backfilled into each test compound well to a total volume of 80 nL to achieve equal concentration of DMSO in all wells. This was followed by an addition of 1 μL of 300 nM reference agonist, Angiotensin II, to the negative and test compound wells, and 1 μL of assay media to positive control wells. The assay was incubated for 90 mins at room temperature, and then developed with 3 μL of detection reagent for 60 mins and luminescence read on a Perkin Elmer ViewLux.
For orientation: The purpose of a counterscreen is to sort out artefacts and off-target activity.

In assay [2] the target is T2, APJ (Homo sapiens, UniProt P35414).
T2 sequence (P35414 1-380): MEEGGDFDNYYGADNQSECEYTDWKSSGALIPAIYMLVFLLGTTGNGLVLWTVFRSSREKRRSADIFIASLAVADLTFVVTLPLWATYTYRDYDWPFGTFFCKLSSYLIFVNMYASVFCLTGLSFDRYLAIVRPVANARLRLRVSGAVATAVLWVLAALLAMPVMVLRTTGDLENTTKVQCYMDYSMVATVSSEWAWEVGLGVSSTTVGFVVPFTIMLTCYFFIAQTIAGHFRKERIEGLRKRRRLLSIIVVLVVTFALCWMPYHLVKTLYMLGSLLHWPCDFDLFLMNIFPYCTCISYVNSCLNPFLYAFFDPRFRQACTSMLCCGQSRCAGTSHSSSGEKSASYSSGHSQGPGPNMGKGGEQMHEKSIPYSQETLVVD
Put plainly: APJ DiscoveRx PathHunter β-arrestin assay (antagonism of apelin-13). Type of assay: cell-based. Also noted: host or cells: Angiotensin II receptor-like 1 (AGTRL-1) Cell Line (PathHunter). The conditions noted are these: for IC50: β-arrestin assay, n = 4 unless noted in parentheses, read-out: APJ Potency IC50 (μM) Ave. ± S.E.M. The method, then: The assay was incubated for 90 mins at room temperature, and then developed with 3 μL of detection reagent (PathHunter Detection Reagents (DiscoveRx, Cat#93-0001)) for 60 mins and luminescence read on a Perkin Elmer ViewLux.
as §1
Assay was incubated for 90 mins at room temperature, and then developed with 3 μL of detection reagent for 60 mins and luminescence read on a Perkin Elmer ViewLux. Initial actives were retested in duplicate at the 20 μM test concentration, and reconfirmed hits retested in full dose-response for compounds from resupplied MLSMR DMSO stock solutions.

Broadly, the IC50 is the point on the concentration scale where inhibition reaches its midpoint. In the case of `Cc1ccnc(SCc2cc(=O)c(OC(=O)c3ccsc3)co2)n1` [Compound 76], the IC50 in assay [1] and in assay [2] was above 79 µM throughout. For `Cc1cc(C)nc(SCc2cc(=O)c(OC(=O)c3cc([N+](=O)[O-])ccc3Cl)co2)n1` [Compound 53], the IC50 worked out at 49.7 ± 6.74 µM in assay [1] and 44.5 µM in assay [2]. Take `O=C(Oc1coc(CSc2ccc(Cl)cc2)cc1=O)c1ccc(Cl)c([N+](=O)[O-])c1` [Compound 63]: the IC50 in assay [1] is above 79 µM. Also, in assay [2], the “SI = Selectivity Index: (IC50 AT1)/(IC50 APJ)” value (“SI = Selectivity Index” below) is on record as above 17 and the IC50 is 4.53 ± 0.66 µM. On to `Cc1ccnc(SCc2cc(=O)c(OC(=O)c3cnco3)co2)n1` [Compound 78], for which the IC50 in assay [1] and in assay [2] was above 79 µM in each case. Regarding `O=c1cc(CSc2ccccc2)occ1O` [Compound 56], the IC50 in assay [1] and in assay [2] was above 79 µM throughout. Take `N#Cc1ccc(C(=O)Oc2coc(CSc3ncccn3)cc2=O)cc1` [Compound 7]: in assay [1], the IC50 is above 79 µM. In assay [2], the “SI = Selectivity Index” value was >12 and >8; the IC50 is 6.59 µM and 9.77 µM. For the compound `O=c1cc(CSc2ccc(F)cc2)occ1O` [Compound 57], the IC50 in assay [1] and in assay [2] was above 79 µM throughout. As to `Cc1ccnc(SCc2cc(=O)c(NC(=O)c3ccccc3)co2)n1` [Compound 73], the IC50 in assay [1] and in assay [2] was above 79 µM in each case. With `Cc1ccnc(SCc2cc(=O)c(OC(=O)c3ccccc3C)co2)n1` [Compound 46], the IC50 in assay [1] and in assay [2] was above 79 µM each time. Turning to `Cc1ccnc(SCc2cc(=O)c(OC(=O)c3cccc([N+](=O)[O-])c3)co2)n1` [Compound 31], the IC50 in assay [2] came out at 59.2 µM.

Turning to `Cc1ccnc(SCc2cc(=O)c(OC(=O)c3cc(Cl)ccc3[N+](=O)[O-])co2)n1` [Compound 40], the IC50 in assay [2] is 58.8 µM. `Cc1ccnc(SCc2cc(=O)c(OC(=O)c3ccco3)co2)n1` [Compound 75]: the IC50 in assay [1] and in assay [2] was above 79 µM in each case. Consider `O=C(Oc1coc(CSc2ncccn2)cc1=O)c1cccc([N+](=O)[O-])c1` [Compound 4], for which the IC50 in assay [2] worked out at 75.7 µM. In the case of `O=C(Oc1coc(CSc2ncccn2)cc1=O)c1ccc(Cl)c([N+](=O)[O-])c1` [Compound 2], in assay [2], the “SI = Selectivity Index” value is recorded as above 13 and the IC50 came out at 6.2 ± 0.77 µM. Take `Cc1ccnc(SCc2cc(=O)c(NC(=O)c3ccc([N+](=O)[O-])cc3)co2)n1` [Compound 74]: the IC50 in assay [1] and in assay [2] was above 79 µM each time.

As for `Cc1ccnc(SCc2cc(=O)c(OC(=O)c3ccc(C)c([N+](=O)[O-])c3)co2)n1` [Compound 30], in assay [2], the “SI = Selectivity Index” value is reported as above 17 and the IC50 worked out at 4.7 µM. `O=C(Oc1coc(CSc2ncccn2)cc1=O)c1ccc(Br)cc1` [Compound 9]: the IC50 in assay [2] stood at 18.2 µM. Take `Cc1ccnc(SCc2cc(=O)c(OC(=O)c3ccccc3Cl)co2)n1` [Compound 42]: in assay [1], the IC50 was above 79 µM. With `Cc1ccnc(SCc2cc(=O)c(OC(=O)c3ccc([N+](=O)[O-])o3)co2)n1` [Compound 77], the IC50 in assay [1] and in assay [2] was above 79 µM throughout.

Consider `Cc1cc(C)nc(SCc2cc(=O)c(OS(=O)(=O)c3ccc([N+](=O)[O-])cc3)co2)n1` [Compound 72], for which the IC50 in assay [1] and in assay [2] was above 79 µM each time. For `O=c1cc(CSc2ncccn2)occ1O` [Compound 58], the IC50 in assay [1] and in assay [2] was above 79 µM in each case. `Cc1cc(C)nc(SCc2cc(=O)c(OS(=O)(=O)c3ccccc3)co2)n1` [Compound 71]: the IC50 in assay [1] and in assay [2] was above 79 µM in each case.

With `Cc1ccnc(SCc2cc(=O)c(OC(=O)C(C)(C)C)co2)n1` [Compound 68], the IC50 in assay [1] and in assay [2] was above 79 µM each time. `O=C(Oc1coc(CSc2ncccn2)cc1=O)c1cc([N+](=O)[O-])ccc1Cl` [Compound 21]: the IC50 in assay [1] amounted to 60.1 ± 1.35 µM; in assay [2] it was 51 µM. For `Cc1cc(C)nc(SCc2cc(=O)c(OC(=O)c3cccc([N+](=O)[O-])c3C)co2)n1` [Compound 54] the same measures were above 79 µM and above 79 µM. `Cc1c(C(=O)Oc2coc(CSc3ncccn3)cc2=O)cccc1[N+](=O)[O-]` [Compound 22]: the IC50 in assay [2] stood at 72.2 µM. For `Cc1cc(C)nc(SCc2cc(=O)c(OC(=O)c3ccc(S(=O)(=O)N(C)C)cc3)co2)n1` [Compound 51], the IC50 in assay [1] and in assay [2] was above 79 µM each time. For the compound `Cc1ccnc(SCc2cc(=O)c(OC(=O)c3ccc(C#N)cc3)co2)n1` [Compound 34], in assay [2], the “SI = Selectivity Index” value is >9 and >7; the IC50 was 8.51 µM and 11.5 µM. As for `Cc1cc(C)nc(SCc2cc(=O)c(OC(=O)c3cc(Cl)ccc3[N+](=O)[O-])co2)n1` [Compound 52], the IC50 is 49.7 ± 6.74 µM in assay [1] and above 79 µM in assay [2]. Turning to `Cc1ccnc(SCc2cc(=O)c(OC(=O)c3cc([N+](=O)[O-])ccc3Cl)co2)n1` [Compound 41], the IC50 in assay [2] came to 74.1 µM. With `Cc1cc(C)nc(SCc2cc(=O)c(OC(=O)c3ccc(Cl)c([N+](=O)[O-])c3)co2)n1` [Compound 49], the IC50 is above 79 µM in assay [1] and 5.45 ± 1.47 µM in assay [2]. Also, the “SI = Selectivity Index” value in assay [2] is above 15. `Cc1ccnc(SCc2cc(=O)c(OCc3ccccc3)co2)n1` [Compound 66]: the IC50 in assay [1] and in assay [2] was above 79 µM in each case. On to `Cc1ccnc(SCc2cc(=O)c(OC(=O)c3ccc([N+](=O)[O-])cc3)co2)n1` [Compound 33], for which, in assay [2], the “SI = Selectivity Index” value is >25 and >23; the IC50 is 3.11 µM and 4.32 µM. In the case of `Cc1cc(C)nc(SCc2cc(=O)c(OC(=O)c3ccc(-c4nccs4)cc3)co2)n1` [Compound 55], the IC50 in assay [1] and in assay [2] was above 79 µM throughout. Take `O=C(Oc1coc(CSc2ncccn2)cc1=O)c1ccc(Cl)cc1` [Compound 5]: in assay [2], the IC50 worked out at 54.5 µM. With `Cc1cc(C)nc(SCc2cc(=O)c(OC(=O)c3ccc(C)c([N+](=O)[O-])c3)co2)n1` [Compound 50], the IC50 in assay [1] is above 79 µM. Also, in assay [2], the “SI = Selectivity Index” value is reported as above 3 and the IC50 stood at 25.3 ± 5.8 µM. In the case of `Cc1ccnc(SCc2cc(=O)c(OC(=O)c3ccc(S(=O)(=O)N4CCCC4)cc3)co2)n1` [Compound 39], the IC50 in assay [2] is 39.9 ± 8.65 µM. In the case of `Cc1ccnc(SCc2cc(=O)c(OC(=O)c3ccc(C(F)(F)F)cc3)co2)n1` [Compound 35], the IC50 in assay [2] is 20.6 µM. On to `Cc1cccc(C(=O)Oc2coc(CSc3nccc(C)n3)cc2=O)c1` [Compound 44], for which the IC50 in assay [1] and in assay [2] was above 79 µM each time. `O=C(Oc1coc(CSc2ncccn2)cc1=O)c1ccc(C(F)(F)F)cc1` [Compound 8]: the IC50 in assay [2] stood at 29 µM. Consider `Cc1ccnc(SCc2cc(=O)c(OCc3ccc(Cl)c([N+](=O)[O-])c3)co2)n1` [Compound 67], for which the IC50 in assay [1] and in assay [2] was above 79 µM each time. Regarding `Cc1ccc(C(=O)Oc2coc(CSc3ncccn3)cc2=O)cc1[N+](=O)[O-]` [Compound 3], in assay [2], the “SI = Selectivity Index” value was >11 and >7.2; the IC50 was 7.25 µM and 10.9 µM.

The record behind these values is patent publication US20140005181A1, “SMALL MOLECULE ANTAGONISTS OF THE APELIN RECEPTOR FOR THE TREATMENT OF DISEASE” (Sanford-Burnham Medical Research Institute, priority 2012, published 2014).
